In patent US11510890B2, “Meroterpenoid compounds for use in the prevention and treatment of a neurological disorder” (SOCIETE DES PRODUITS NESTLE S.A., priority 2017, dated 2022):
Read-outs that look alike come from different tables or passages of the source.

Key:
[1] = tested on: human iPSc derived into cardiomyocyte (iCell Cardiomyocytes); assay: Toxicity - ATP content (CellTiter-Glo); format: cell-based
Procedure: (§1) Differentiated human iPSCs (iCell astrocytes, and iCell cardiomyocytes) were obtained from Cellular Dynamics International (CDI, Madison, Wis., USA). iCell astrocytes were cultured in DMEM supplemented with 10% fetal calf serum and N2 complement. iCell cardiomyocytes were maintained in a medium supplied by CDI. Cell cultures were kept in a humidified atmosphere (5% CO2) at 37° C.
iCell Cardiomyocytes were seeded in 384-well plates. Eight days later cells were treated for 24 hours with compounds. Cell viability was determined by the quantification of intracellular ATP after cell lysis. ATP was used as an indicator of metabolically active cells. ATP was measured using a luminescent cell viability assay (CellTiter-Glo®; […]). Luminescence was measured after 20 min in a Bioteck Synergie Neo multimode reader.
Toxicity of the meroterpenoid compounds were evaluated in human IPS cell derived cardiomyocytes by measuring total ATP in cell lysates.
Dose response of compounds on human iPSc derived into cardiomyocyte with evaluation of the ATP level using cell titer glow. Results were normalized between untreated cells (100%) and positive control (0%).
(§2) The toxicity expressed in log IC50 (ATP content after 24 hours compound treatment on human iPSc derived into cardiomyocyte) was compared against the lactate release in log EC50 (lactate secretion after 2 hours compound treatment in human iPSc derived into astrocytes).

CCF-STTG1 = assay: Lactate release orthogonal assay (spectrophotometric enzymatic assay); format: cell-based, human; conditions: CCF-STTG1, supernatants after 2 hours, colorimetric kit
Procedure: CCF-STTG1 were seeded in 384-well plates. Two days later, the cells were washed 3 times and incubated 30 min in Krebs-Ringer bicarbonate HEPES (KRBH) buffer containing (in mM): 140 NaCl, 3.6 KCl, 0.5 NaH2PO4, 0.5 MgSO4, 1.5 CaCl2, 10 HEPES, 5 NaHCO3 (pH7.4) supplemented with 2.5 mM glucose. The cells were maintained in the buffer in the presence of tested compounds. Supernatants were collected after 2 hours and assessed for lactate concentration. Lactate concentration in the supernatant was determined by a spectrophotometric enzymatic assay (lactate colorimetric assay kit II no. K627; BioVision, Milpitas, Calif. USA). In this kit, lactate is oxidized by lactate dehydrogenase to generate a product which interacts with a probe to produce a color (λmax=450 nm).
Absorbance was measure after 30 min at 450 nm using Bioteck Synergie Neo multimode reader. Background absorbance obtained in the absence of kit was subtracted from each value.
The stimulation of lactate secretion after treatment with meroterpenoid compounds was confirmed in an orthogonal assay based on another enzyme to measure lactate. The results of the lactate release measurement during the drug discovery screen for each compound and the results of lactate release measure with the orthogonal assay were correlated.

[2] = tested on: human iPSc derived into astrocyte (iCell astrocytes); assay: Lactate release dose response in human iPSc derived astrocytes; format: cell-based
Procedure: Dose response curves were established for compounds identified in the screen to stimulate lactate secretion. The EC50 values for the stimulation of lactate secretion were determined using primary human IPS cell derived astrocytes.
as §1
Dose response of compounds on lactate release from human iPSc derived into astrocyte fitted with a log (agonist) vs. response variable slope to extract […] (EC50). Mean±SEM in duplicate.
as §2

[3] = tested on: Human astrocytoma cell line CCF-STTG1; assay: Lactate release screening assay (fluorescent enzymatic assay); format: cell-based; conditions: for Primary screen %: CCF-STTG1, supernatants after 2 hours
Procedure: Human astrocytoma cell line CCF-STTG1 was cultured at 37° C. in a humidified atmosphere (5% CO2) in RPMI-1640 medium supplemented with 10% (v/v) heat-inactivated fetal calf serum, 50 μg/ml penicillin and 100 μg/ml streptomycin.
CCF-STTG1 were seeded in 384-well plates. Two days later, the cells were washed 3 times and incubated 30 min in Krebs-Ringer bicarbonate HEPES (KRBH) buffer containing (in mM): 140 NaCl, 3.6 KCl, 0.5 NaH2PO4, 0.5 MgSO4, 1.5 CaCl2, 10 HEPES, 5 NaHCO3 (pH7.4) supplemented with 2.5 mM glucose. Then, the cells were maintained in the buffer in the presence of tested compounds. Supernatants were collected after 2 hours and were assessed for lactate concentration. Lactate concentration in the supernatants were determined by fluorescent enzymatic assay. Samples were diluted in assay reagent containing (in mM or U/ml)): 100 sodium phosphate (pH7.5), 0.1 EDTA, 0.05 Amplex UltraRed, 0.1 Lactate oxidase, 1.5 Horseradish Peroxidase.
Fluorescence emission was measured at 600 nm after an excitation at 500 nm using Bioteck Synergie Neo multimode reader after 30 min at room temperature protected from direct light.

[4] = ATP content after 24 hours compound treatment, read-out: Cardiomyocytes Toxicity IC50
[5] = log of IC50 in M, given negative, ATP content after 24 hours
[6] = lactate secretion after 2 hours compound treatment, read-out: Astrocytes Lactate release EC50
[7] = log of EC50 in M, given negative, 2 hours compound treatment

| EC50 [2, 6] | Compound | IC50 [1, 4] | Cardiomyocytes Toxicity log IC50 [1, 5] | Orthogonal assay % (CCF-STTG1) | Astrocytes Lactate release logEC50 [2, 7] | Primary screen % [3] | Reconfirmation % [3] | IC50 ([1]; Homo sapiens, iPSC, ATP content after 24 hours compound treatment, read-out: Cardiomyocytes Toxicity IC50) | IC50 ([1]; Homo sapiens, iPSC, log of IC50 in M, given negative, ATP content after 24 hours, read-out: Cardiomyocytes Toxicity log IC50 (converted)) | EC50 ([2]; Homo sapiens, iPSC, lactate secretion after 2 hours compound treatment, read-out: Astrocytes Lactate release EC50) | EC50 ([2]; Homo sapiens, iPSC, log of EC50 in M, given negative, 2 hours compound treatment, read-out: Astrocytes Lactate release logEC50 (converted)) |
| --- | --- | --- | --- | --- | --- | --- | --- | --- | --- | --- | --- |
| 0.15 µM | C/C(=C\Cc1c(O)c(Cl)c(C)c(C=O)c1O)CC[C@@]1(C)[C@H](C)CCC(=O)[C@@H]1C [22562-67-0, Ilicicolin C] | 71 µM | −4.2 | 84% | −6.8 | 70% | 74% | – | – | – | – |
| 2.6 µM | C/C(=C\Cc1c(O)cc(C)c(C=O)c1O)CC[C@@]1(C)[C@H](C)CCC(=O)[C@@H]1C [22562-68-1, Antibiotic LL-Z 1272ε] | 81 µM | −4.1 | 68% | −5.6 | 72% | 83% | – | – | – | – |
| 0.014 µM | CC(/C=C/C1(C)C(C)C=CC(=O)C1C)=C\Cc1c(O)c(Cl)c(C)c(C=O)c1O (stereo not drawn) [22581-11-9] | 3.2 µM | −5.5 | 61% | −7.9 | 68% | 50% | – | – | – | – |
| – | CC(/C=C/[C@@]1(C)[C@H](C)CCC(=O)[C@@H]1C)=C\Cc1c(O)c(Cl)c(C)c(C=O)c1O [26166-39-2, Ascochlorin] | – | – | – | – | – | – | 1.2 µM | 1.26 µM | 0.011 µM | 0.0126 µM |
| – | CC(=O)OC(C[C@@]1(C)[C@H](C)CCC(=O)[C@@H]1C)/C(C)=C/Cc1c(O)c(Cl)c(C)c(C=O)c1O (stereo partly drawn) [38965-84-3, Chloronectrin] | 30 µM | −4.5 | 68% | – | 104% | 97% | – | – | – | – |
| 10 µM | CC(C)=CCC/C(C)=C/Cc1c(O)cc(CCc2ccccc2)c(C(=O)O)c1O [73436-04-1, 4-O-Demethylamorfrutin B] | – | – | 68% | −5.0 | 82% | 77% | – | – | – | – |
| 3.2 µM | COc1cc(CCc2ccccc2)c(C(=O)O)c(O)c1CC=C(C)C [80489-90-3, Amorfrutin] | 47 µM | −4.3 | 80% | −5.5 | 85% | 122% | – | – | – | – |
| 6.7 µM | CC(/C=C/[C@@]1(C)[C@H](C)CCC(=O)[C@@H]1C)=C\Cc1c(O)cc(C)c(C=O)c1O [165187-16-6, Cylindrol B] | 31 µM | −4.5 | 67% | −5.2 | 100% | 61% | – | – | – | – |
| 0.027 µM | Ilicicolin F [22738-98-3] | 7 µM | −5.2 | 119% | −7.6 | 96% | 142% | – | – | – | – |

| Compound | EC50 [2, 6] | IC50 [1, 4] | Cardiomyocytes Toxicity log IC50 [1, 5] | Orthogonal assay % (CCF-STTG1) | Astrocytes Lactate release logEC50 [2, 7] | Primary screen % [3] | Reconfirmation % [3] | IC50 ([1]; Homo sapiens, iPSC, ATP content after 24 hours compound treatment, read-out: Cardiomyocytes Toxicity IC50) | IC50 ([1]; Homo sapiens, iPSC, log of IC50 in M, given negative, ATP content after 24 hours, read-out: Cardiomyocytes Toxicity log IC50 (converted)) | EC50 ([2]; Homo sapiens, iPSC, lactate secretion after 2 hours compound treatment, read-out: Astrocytes Lactate release EC50) | EC50 ([2]; Homo sapiens, iPSC, log of EC50 in M, given negative, 2 hours compound treatment, read-out: Astrocytes Lactate release logEC50 (converted)) |
| --- | --- | --- | --- | --- | --- | --- | --- | --- | --- | --- | --- |
| Lasalocid [25999-31-9] | 4.4 µM | 11 µM | −4.9 | 53% | −5.4 | 88% | 73% | – | – | – | – |
